Experimental data reported in US12139488B2, “Pyrido[3,2-d]pyrimidine compounds uses thereof for treating a proliferative disease” (Universite de Montreal, priority 2021, dated 2024).

Columns and labels:
[1] = molecular target: ARAF (Homo sapiens (Human), UniProt P10398); experiment: ARAF kinase activity assay (AlphaLISA p-MEK 1/2 detection); type: biochemical
Procedure: Compound preparation: solid samples of each substances in 1 dram vials were suspended in DMSO (Fisher Scientific) at a stock concentration of 20 mM. Stocks were kept at −20° C. and protected from light. If solubility of the compound at 20 mM appeared to be an issue, the initial concentration of the DMSO stock was changed to 10 mM or 5 mM.
In vitro enzymatic reactions were used for evaluating compounds intrinsic activity against BRAF, CRAF and ARAF. For BRAF and CRAF, 0.375 nM of purified GST-tagged kinases (cat #B4062-10 UG and cat #R1656-10 UG respectively from Millipore Sigma) were incubated with 75 nM of kinase-dead MEK1 substrate (cat #40075; BPS Bioscience) in the presence of 10 μM of Ultrapure ATP (cat #V9102; Promega; part V915A) with and without the test compound in a buffer containing 50 mM HEPES pH 7.5, 10 mM MgCl2, 1 mM EDTA, 0.01% Brij-35 and 2 mM DTT. Separate reactions were performed with the MEK1 substrate and ATP as a blank control. ARAF, kinase reactions were rigorously the same with the exception that kinase concentration was raised to 3.75 nM (cat #1768-0000-1; Reaction Biology).
For compound treatment, 5 μL/well of test substance solution are placed in a 384-well proxyplate (Perkin Elmer) and mixed with 2× concentrated kinase reactions. The dilution series is selected so that nine concentrations cover a range from 100 nM to 0.01 nM. […] The final concentration of DMSO in the assay is set at 0.05%.
ARAF kinase reactions were carried out for a total of 2 hours at 30° C. and then stopped by addition of EDTA at a final concentration of 40 mM. Reactions were then detected using the AlphaLISA® SureFire® Ultra™ p-MEK 1/2 (Ser218/222) (PerkinElmer) kit. Reactions were performed with 5 μL of kinase reaction according to the manufacturer's specifications in 384-well proxyplates (Perkin Elmer) followed by overnight incubation of the AlphaLISA® reactions at room temperature in a humidified chamber. After completion of the detection reactions, the signals were recorded on a Synergy Neo2 plate reader (Biotek) equipped with AlphaLISA® filters. The effect of each compound dilution on the pMEK signal generated by ARAF reactions was expressed in % inhibition and calculated as follows. An internal 100% inhibition control (average of luminescence in kinase reactions comprising kinase dead MEK1 substrate alone) was included in each plate to measure of pMEK background and was subtracted from each data point. The average of DMSO (vehicle) controls (set as 0% inhibition) was also established and used to calculate % inhibition: % inhibition=100*(1−((pMEK signalcompound)/(pMEK signalDMSO)))
IC50 values were obtained by plotting the kinase inhibition values and fitting the dose-activity curves using a log(agonist) versus response-variable slope (four parameters) function using either GraphPadPrism (V7.0) or Dotmatics Screening Ultra platform. Standards included in the ARAF kinase assay were Belvarafenib (MedChem Express cat #HY-109080; CAS #1446113-23-0), LXH254 (MedChem Express cat #HY-112089; CAS #1800398-38-2) and BGB283 (cat #HY-18957; CAS #1446090-79-4).

[2] = tested on: pERK in HCT-116 cells (KRAS G13D); experiment: Phospho-ERK inhibition (AlphaLISA SureFire Ultra p-ERK 1/2), HCT116; type: cell-based, human; settings: for HCT116 pERK % Ymin: value in parentheses
Method in brief: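 Cells in RPMI-1640 with 5% FBS were plated overnight, then exposed for 1 h to ten-point dilutions (typically 10 μM to 0.33 nM; 0.5% DMSO). Lysates were read by AlphaLISA SureFire Ultra for p-ERK1/2 Thr202/Tyr204; % inhibition used trametinib background and DMSO controls, with IC50 from four-parameter fits.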

ARAF, sequence (P10398 whole entry): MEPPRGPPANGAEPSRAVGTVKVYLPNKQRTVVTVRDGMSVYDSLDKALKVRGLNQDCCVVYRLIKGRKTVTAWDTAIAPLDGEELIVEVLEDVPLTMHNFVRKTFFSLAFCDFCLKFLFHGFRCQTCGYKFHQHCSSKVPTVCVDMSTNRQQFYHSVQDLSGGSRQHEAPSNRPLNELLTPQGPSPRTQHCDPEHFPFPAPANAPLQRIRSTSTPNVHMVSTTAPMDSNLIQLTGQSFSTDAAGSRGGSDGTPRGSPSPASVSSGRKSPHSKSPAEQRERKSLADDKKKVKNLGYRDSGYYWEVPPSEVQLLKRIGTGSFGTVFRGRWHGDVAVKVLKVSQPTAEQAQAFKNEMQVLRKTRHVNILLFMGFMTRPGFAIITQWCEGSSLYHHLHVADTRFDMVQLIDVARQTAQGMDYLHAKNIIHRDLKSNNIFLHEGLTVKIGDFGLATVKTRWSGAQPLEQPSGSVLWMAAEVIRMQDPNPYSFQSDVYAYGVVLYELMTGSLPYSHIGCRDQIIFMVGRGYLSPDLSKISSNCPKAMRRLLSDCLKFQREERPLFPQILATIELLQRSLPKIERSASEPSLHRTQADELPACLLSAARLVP

IC50 [1] [nM] | IC50 ([2]; Homo sapiens, HCT-116, HCT116, Table D) [nM] | IC50 ([2]; HCT116, Table D) [nM] | IC50 ([2]; HCT116 cells, class symbol before the bracket) [nM] | YMIN of pERK IC50 dose response curve (paradoxical induction of pERK signaling) ([2]; RAS-mutant HCT116 cells, FIG. 1) [%] | IC50 ([2]; HCT116 cells, class symbol) [nM] | Compound | HCT116 pERK % Ymin ([2]; HCT116, Table D) [%] | HCT116 pERK Ymin % ([2]; HCT116 cells, Ymin in brackets) [%]
> 10 | 30 to 300 | – | – | – | – | Cc1ccc2c(Nc3cccc(Cl)c3F)nccc2c1NC(=O)c1csc2c(N)ncnc12 [Belvarafenib, reference compound] | −46 | –
< 1 | – | 30 to 300 | < 500 | > −20 | – | Nc1cccc2c1ncn2-c1ccc2ncnc(Nc3c(F)ccc(NS(=O)(=O)c4cccc(Cl)c4Cl)c3F)c2n1 [Example 99] | −0.3 | −5.4
1 to 10 | – | 30 to 300 | – | – | < 500 | CC1(O)CCN(c2cccc3c2ncn3-c2ccc3ncnc(Nc4c(F)ccc(NS(=O)(=O)c5cccc(Cl)c5Cl)c4F)c3n2)CC1 [Example 524] | −3 | –
